Measurements as given in patent US10954300B2, “Use of pentoxifylline with immune checkpoint-blockade therapies for the treatment of melanoma” (THE TRUSTEES OF COLUMBIA UNIVERSITY IN THE CITY OF NEW YORK, priority 2015, dated 2021).
Entries after “also recorded” stand apart in the source; their conditions may differ.

Tests used:
B16F1 melanoma cells [1] = assay: Flow cytometry of tumor infiltrates (TILs) at D16, early PTXF treatment; assay type: in vivo, C57Bl/6J mice
Protocol: (§1) Cells were isolated from thymus, spleen and lymph nodes by mechanical desegregation in PBS+ FBS 3%. For tumor-infiltrating cell suspensions, total tumors were digested in DMEM (Gibco) supplemented with 1 mg/ml collagenase type IV (Sigma) and 1 mg/ml DNase I (Sigma) for 40 minutes at 37° C., followed by centrifugation in a 36% Percoll solution. For intracellular cytokines analyses, cell suspensions were incubated 3 hours with PMA (Sigma, 50 ng/mL), ionoymycin (Sigma, 1 μg/mL) in the presence of Golgi Plug (BD), or incubated 4 hours with mitomycin C-treated WT splenocytes loaded with 10 mg/mL gp100/pmel 17 peptide (Neo Biolab) in the presence of Golgi Plug. Cells were then stained with mAbs purchased by eBioscience or Tonbo Bioscience. Foxp3 and cytokine staining were performed using the eBioscience kit and protocol. Cells were acquired on a LSR II (BD Biosciences) and analyzed with FlowJo (Tree Star) software.

B16F1 melanoma cells [2] = assay: Established B16F1 melanoma, PTXF with or without checkpoint-blockade mAb; assay type: in vivo, C57Bl/6 WT mice; conditions: for tumor size / tumor growth (growth curves): PTXF 50 mg/kg and/or anti-PD-1 mAb from D5-D6, vs control
Protocol: Pentoxifylline (Sigma) powder was dissolved in PBS1X and sterile filtered prior to each injection. For the early regimen of pentoxifylline treatment, mice were injected intra-peritoneally with 50 mg/kg pentoxifylline diluted in 100 μL PBS1X at days 0, 1, 2, 3, 5, 7, and 9. For the “curative” regimen, mice were treated daily from day 5-6 (when the tumor was visible and palpable) to day 11, following the same methods. IT-603 was reconstituted in DMSO and stored at −80° C. It then was diluted in PBS1X and sterile-filtered prior to each injection. Mice were injected intra-peritoneally with 10 mg/kg […] diluted in 100 μL PBS1X at days 0, 1, 2, 3, 5, 7 and 9.
Anti-PD-1 antibody (clone RMP1-14, BioXCell®) or isotype control (polyclonal IgG, BioXCell®) is available commercially. The antibodies were aliquoted in sterile PBS1X and stored at −80° C. until use. Mice are injected intra-peritoneally with […] of anti-PD-1 or isotype antibody, diluted in 100 μL sterile PBS1X at days 6, 8 and 10. All injections are performed using a 27.5 gauge needle, following the standard precautions.
5×10^4 B16F1 or 5×10^5 CT-26 or BRAF^CAPten^−/− cells diluted in sterile PBS1X were injected subcutaneously into the shaved flank of each mouse. For metastasis experiments, 2.5×10^4 B16F10 cells were injected intravenously in the tail vein. […] Anti-PD-1 (RMP1-14), anti-PD-L1 (10F.9G2) and anti-CD8 (YTS.169-4) mAbs were obtained from BioXCell. Rat IgG isotype control was from R&D Systems. […] In FIG. 11A-11G, Balb/c mice harboring CT-26 tumors received a suboptimal dose of 100 μg of anti-PD-1.
Tumor growth was monitored daily.

Treg cells [3] = assay: In vitro suppression assay with PTXF-treated Treg cells; assay type: cell-based, mice; conditions: vs mock-treated Treg cells
Treg cells [4] = assay: Flow cytometry of PTXF-treated Treg cells; assay type: cell-based, mice; conditions: 16 h stimulation, 500 μg/mL PTXF
Protocol: as §1, with “software. […] Total cells suspensions were then activated with 5 μg/mL plate-coated anti-mCD3, 1 μg/ml soluble anti-mCD28 (BioLegend) and 10 ng/mL mIL-2, overnight at 37 C. Treg cells were then washed for further use.” for “software.”

B16F1 cells = assay: B16F1 tumor growth in immunodeficient mice; assay type: in vivo, RAG1−/− mice; conditions: PTXF vs PBS
Protocol: 5×10^4 B16F1 or 5×10^5 CT-26 or BRAF^[…]^-/- cells diluted in sterile PBS1X were injected subcutaneously into the shaved flank of each mouse. For metastasis experiments, 2.5×10^4 B16F10 cells were injected intravenously in the tail vein. […] Anti-PD-1 (RMP1-14), anti-PD-L1 (10F.9G2) and anti-CD8 (YTS.169-4) mAbs were obtained from BioXCell. Rat IgG isotype control was from R&D Systems.

p65 = assay: Western blot on PTXF-treated Treg cells; assay type: cell-based, mice; conditions: Treg cells stimulated with anti-CD3/CD28 and mIL-2, 500 μg/mL PTXF
Protocol: Total cells suspensions were then activated with 5 μg/mL plate-coated anti-mCD3, 1 μg/ml soluble anti-mCD28 (BioLegend) and 10 ng/mL mIL-2, overnight at 37 C. Treg cells were then washed for further use. Total lysates were extracted using RIPA buffer and protease inhibitors with SDS. 20 μg (micrograms) protein extracts were ran in polyacrylamide gels and transferred onto PVDF membranes. Membranes were incubated with anti-p65, c-Rel (Santa-Cruz) and GAPDH (Fitzgerald) Abs, followed HRP-coupled secondary Abs.

c-Rel = biological target: T1, c-Rel (Mus musculus, UniProt P15307); assay: Western blot on PTXF-treated Treg cells; assay type: cell-based, mice; conditions: Treg cells stimulated with anti-CD3/CD28 and mIL-2, 500 μg/mL PTXF
T1 construct: CD4+GFP+ Treg cells were sorted form Foxp3eGFP spleens; endogenous in cells; host or cells: primary splenic CD4+Foxp3+ Treg cells from reporter mice
Protocol: Total cells suspensions were then activated with 5 μg/mL plate-coated anti-mCD3, 1 μg/ml soluble anti-mCD28 (BioLegend) and 10 ng/mL mIL-2, overnight at 37 C. Treg cells were then washed for further use.
Total lysates were extracted using RIPA buffer and protease inhibitors with SDS. 20 μg (micrograms) protein extracts were ran in polyacrylamide gels and transferred onto PVDF membranes. Membranes were incubated with anti-p65, c-Rel (Santa-Cruz) and GAPDH (Fitzgerald) Abs, followed HRP-coupled secondary Abs.

T1 sequence (P15307 whole entry): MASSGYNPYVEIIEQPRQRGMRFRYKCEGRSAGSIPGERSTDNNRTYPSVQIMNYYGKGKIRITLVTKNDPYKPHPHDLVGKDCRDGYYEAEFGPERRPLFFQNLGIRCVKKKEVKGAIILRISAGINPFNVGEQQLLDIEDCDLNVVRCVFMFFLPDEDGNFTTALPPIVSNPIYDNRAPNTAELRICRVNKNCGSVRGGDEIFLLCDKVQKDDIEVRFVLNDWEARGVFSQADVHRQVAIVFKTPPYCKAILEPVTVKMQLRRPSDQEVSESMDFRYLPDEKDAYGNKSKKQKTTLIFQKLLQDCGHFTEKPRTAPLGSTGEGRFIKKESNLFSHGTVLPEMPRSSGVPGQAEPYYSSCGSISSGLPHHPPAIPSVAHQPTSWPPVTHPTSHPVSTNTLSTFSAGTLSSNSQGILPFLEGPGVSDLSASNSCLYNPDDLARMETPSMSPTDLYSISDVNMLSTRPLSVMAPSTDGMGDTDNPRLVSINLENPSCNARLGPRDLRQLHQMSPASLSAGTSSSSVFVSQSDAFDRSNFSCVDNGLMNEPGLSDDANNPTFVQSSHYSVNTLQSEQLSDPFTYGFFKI

With `CC(=O)CCCCn1c(=O)c2c(ncn2C)n(C)c1=O` [PTXF, 1-(5-oxohexyl)-3,7-dimethylxanthine] as the molecule, how does the “CD44 and Ki67 expression on CD4+ Tconv TILs” value (B16F1 melanoma cells [1]) read?
The value was “increased”.

What about the “infiltration of total T cells and IFN-γ-producing CD4 and CD8 T-cells into the tumors” value (B16F1 melanoma cells [1]) of the same molecule?
The value was “increase in infiltration”.

And the “proportion of Treg cells in tumor infiltrates” value (B16F1 melanoma cells [1])?
The value was “decrease in the proportion of Treg cells”.

And the “tumor size / tumor growth (growth curves)” value (B16F1 melanoma cells [2])?
The value was “did not change the growth curves; also recorded: did not significantly reduce tumor size”.

What about the “tumor size / tumor growth (growth curves)” value (B16F1 melanoma cells [2]; listed as pentoxifylline) of the same molecule?
Its value is “did not significantly reduce tumor size”.

And the “tumor growth, anti-PD-L1 instead of anti-PD-1” value (B16F1 melanoma cells [2]; PTXF and/or anti-PD-L1 mAb)?
The value was “did not affect tumor growth”.

And the “suppression of effector T-cell proliferation by PTXF-treated Treg cells” value (Treg cells [3])?
Its value is “modest, but significant, reduction”.

What about the “expression of Treg markers such as Foxp3, CD25 and Helios” value (Treg cells [4]) of the same molecule?
The value was “significantly decreased expression”.

And the “tumor growth in immunodeficient background” value (B16F1 cells)?
The value was “no effect on tumor growth”.

And the “levels of p65” value (p65)?
The value was “unchanged”.

And the c-Rel protein (c-Rel)?
Its c-Rel protein is “significant reduction of c-Rel protein”.
